Reference: patent US4454065A, “Oligopeptide prodrugs” (SmithKline Beckman Corporation, priority 1983, dated 1984)
In brackets after ≈: the same amount, converted by molar mass. Like-named read-outs stand apart in the source and are kept apart here.

Legend:
C. albicans = test: Minimum inhibitory concentration, two-fold broth dilution (Method/Test B); type: cell-based, Candida albicans
Experimental: (§1) B. Fungi [Minimum inhibitory […] (MIC)]:
(§2) The minimum inhibitory concentration of the test compound was determined by two-fold broth dilution tests in yeast carbon base medium, containing 200 μg/ml of sodium glutamate. The compounds were diluted from […] to 0.25 μg/ml and the test medium was inoculated with a suspension of C. albicans grown in the same medium for 15 hours at 37°. The final inoculum sizes in the tests we approximately 10^4 cfu/ml and 10^3 cfu/ml. The tubes were incubated at 37° for 24 and 48 hours and observed for inhibition.

Candida albicans = test: Disk diffusion method, fungi (Method/Test A); type: cell-based; details: for zone (Test A, disk diffusion; quantity not given): C. albicans B-311; for zone size: C. albicans
Experimental: (§3) A. Fungi (Disk diffusion method):
(§4) Candida albicans strains B-311 and BC 759, obtained from Smith Kline and French Laboratory Culture Collection were grown in a trypticase soy broth at 28° for 7 hours. The seeded plates, with this medium containing 1.5% agar, were prepared by inoculating 1 ml of the inoculum in 1 l. of yeast-carbon base medium, containing 200 μg/ml of lysine or glutamate as a sole source of nitrogen.

E. coli M. 2626 = test: Disk diffusion method, bacteria (Method C); type: cell-based; details: Escherichia coli
Description: C. Bacteria (Disk diffusion method): A method similar to A above but using E. coli was used which employs a M-9 medium (basic salts with ammonium ion as the nitrogen source and glucose as the carbon source).

leucine aminopeptidase = leucine aminopeptidase (Sus scrofa, UniProt P28839); test: Detector peptide as enzyme substrate, leucine aminopeptidase; type: biochemical
Description: (§5) The compounds of formula I or IA in which W is a C1-6 -alkylthio, a functionalized C1-6 -alkylthio for example a C1-6 -aminoalkylthio or a phenylthio as defined above by formula II are of particular utility for detecting protease/peptidase activity in biological systems. For example, the compounds are more sensitive chromogenic detectors of protease activity in biological liquids, such as serum, than is leucine p-nitroanilide. This utility depends on the release, by protease action, of the mercaptan, H-S-R^2, which is assayed quantitatively by colorimetry using Ellman's reagent as described in the examples.

aminopeptidase M = aminopeptidase M (Homo sapiens, UniProt P15144); test: Detector peptide as enzyme substrate, aminopeptidase M; type: biochemical
Description: as §5

[1] = test system: representative fungal and bacterial organisms; test: Biological screen described in the utility example; type: cell-based; details: product found to be not completely deblocked
Experimental: A prototypal compound, L-alanyl-2-(5-fluorouracil-2-yl)-L-glycine, was evaluated against representative fungal and bacterial organisms.
as §3, §4, §1, §2
C. Bacteria (Disk diffusion method):
A method similar to A above but using E. coli was used which employs a M-9 medium (basic salts with ammonium ion as the nitrogen source and glucose as the carbon source).

[2] = test system: hog kidney leucine aminopeptidase; test: Enzyme catalyzed warhead release (Ellman reagent, 412 nm); type: biochemical; details: for λ(412) absorbance: enzyme added
Experimental: (§6) The release was maintained at a linear rate over the observation period (5 min). […] This observation is consistent with literature reports of the optimal pH necessary for the efficacy of this enzyme.
(§7) These observations were obtained by colorimetric assay, which involves the reaction between a free sulfhydryl group and 5,5'-dithio-bis(2-nitrobenzoic acid), the Ellman reagent, to produce a yellow color as follows: [drawing 12]
(§8) The peptide from Example 4 was dissolved in 4 mM of phosphate buffer solution (pH 7) containing in Ellman reagent at a level of 4 mg/ml to produce a 1 mM solution of the peptide. The resulting mixture was monitored using a spectrophotometer at a wavelength of 412 nm. To 1 ml of this solution was added 100 μg of hog kidney leucine aminopeptidase (Sigma) and the enzymatic hydrolysis was continuously monitored at 412 nm.
(§9) Reaction mixture contained 1 mM peptide, Ellman's reagent 4 mg/ml, phosphate buffer 4 mM (pH 7).

[3] = Stability in aqueous phosphate buffer, spontaneous warhead release (Ellman reagent, 412 nm); type: physicochemical; details: for λ(412) absorbance: before enzyme
Experimental: as §6, §7, §8, §9

[4] = test system: hog kidney leucine aminopeptidase; test: Enzyme catalyzed warhead release (Ellman reagent, 412 nm); type: biochemical; details: pH 7.5
Fasciola hepatica = details: mice, subcutaneously 15 mg/kg for eight days; compared with albendazole
Caenorhabditis elegans = details: concentrations of 10 and 100 μg/ml
Nematospiroides dubius = details: mice, subcutaneously 15 mg/kg for eight days; compared with albendazole
trypsin = target: T1, trypsin (Bos taurus, UniProt P00760); test: Detector peptide as enzyme substrate, trypsin; type: biochemical
T1 construct: gene PRSS1
T1 sequence (P00760 24-246): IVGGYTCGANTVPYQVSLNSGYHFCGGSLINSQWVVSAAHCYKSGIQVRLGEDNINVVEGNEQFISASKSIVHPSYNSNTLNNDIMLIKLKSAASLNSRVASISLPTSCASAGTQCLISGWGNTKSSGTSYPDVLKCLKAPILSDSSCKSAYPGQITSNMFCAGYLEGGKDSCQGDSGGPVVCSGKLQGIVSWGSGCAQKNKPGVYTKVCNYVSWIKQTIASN
Description: as §5

Chain of leucine aminopeptidase (P28839 whole entry): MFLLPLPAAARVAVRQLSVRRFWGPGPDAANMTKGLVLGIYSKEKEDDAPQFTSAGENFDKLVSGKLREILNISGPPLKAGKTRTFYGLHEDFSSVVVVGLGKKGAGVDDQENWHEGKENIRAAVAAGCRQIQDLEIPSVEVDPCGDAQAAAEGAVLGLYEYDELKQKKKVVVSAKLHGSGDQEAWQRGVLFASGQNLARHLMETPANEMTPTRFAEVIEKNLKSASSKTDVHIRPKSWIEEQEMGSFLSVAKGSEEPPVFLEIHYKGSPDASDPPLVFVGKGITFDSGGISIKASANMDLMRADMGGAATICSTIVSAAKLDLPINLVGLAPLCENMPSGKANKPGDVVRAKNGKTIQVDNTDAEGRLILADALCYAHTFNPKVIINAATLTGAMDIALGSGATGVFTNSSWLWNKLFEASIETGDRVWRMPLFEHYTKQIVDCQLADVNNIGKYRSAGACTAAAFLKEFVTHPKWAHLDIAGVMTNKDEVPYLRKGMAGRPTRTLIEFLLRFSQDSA
Chain of aminopeptidase M (P15144 whole entry, species assumed): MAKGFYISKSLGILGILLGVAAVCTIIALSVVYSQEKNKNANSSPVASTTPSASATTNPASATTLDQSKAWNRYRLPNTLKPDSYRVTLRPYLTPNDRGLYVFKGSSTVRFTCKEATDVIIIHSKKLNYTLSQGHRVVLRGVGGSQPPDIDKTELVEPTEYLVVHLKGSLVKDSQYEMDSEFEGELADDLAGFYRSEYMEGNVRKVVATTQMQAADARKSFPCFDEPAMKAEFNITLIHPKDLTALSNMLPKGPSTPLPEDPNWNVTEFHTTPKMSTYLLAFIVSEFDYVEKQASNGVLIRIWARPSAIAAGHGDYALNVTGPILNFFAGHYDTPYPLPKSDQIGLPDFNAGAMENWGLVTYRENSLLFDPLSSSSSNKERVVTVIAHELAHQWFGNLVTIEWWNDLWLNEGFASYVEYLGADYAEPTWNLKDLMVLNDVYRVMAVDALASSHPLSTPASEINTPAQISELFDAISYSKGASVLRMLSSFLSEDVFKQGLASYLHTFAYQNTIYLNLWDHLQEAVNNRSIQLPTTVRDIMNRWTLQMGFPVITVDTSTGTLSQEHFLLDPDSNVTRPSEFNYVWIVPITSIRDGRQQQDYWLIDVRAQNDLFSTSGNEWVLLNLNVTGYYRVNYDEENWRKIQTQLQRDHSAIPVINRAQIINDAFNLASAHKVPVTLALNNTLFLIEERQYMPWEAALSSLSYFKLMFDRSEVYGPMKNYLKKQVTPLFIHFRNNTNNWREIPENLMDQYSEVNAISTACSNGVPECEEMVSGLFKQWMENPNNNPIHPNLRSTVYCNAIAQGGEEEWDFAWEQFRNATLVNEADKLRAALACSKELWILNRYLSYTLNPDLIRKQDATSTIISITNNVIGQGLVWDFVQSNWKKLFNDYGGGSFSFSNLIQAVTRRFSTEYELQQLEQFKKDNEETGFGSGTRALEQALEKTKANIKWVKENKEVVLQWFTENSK

Compound: O=c1[nH]cc(F)c(=O)[nH]1 [Example 5-FU, 5-fluorouracil, reference compound]
- MIC (C. albicans; Candida albicans, C. albicans strain 3153A, read-out: MIC): 1 µg/mL (≈ 7.69 µM)
- MIC (C. albicans; Candida albicans, C. albicans strain B 311, read-out: MIC): 4 µg/mL (≈ 30.8 µM)
- MIC (C. albicans; Candida albicans, C. albicans strain BC 759, read-out: MIC): 1 µg/mL (≈ 7.69 µM)
- zone (Test A, disk diffusion; quantity not given) (Candida albicans; Conc. 1.5 μg/desk): 22 mm
- zone (Test A, disk diffusion; quantity not given) (Candida albicans; Conc. 3.0 μg/desk): 30 mm
- zone (Test A, disk diffusion; quantity not given) (Candida albicans; Conc. 6.0 μg/desk): 30 mm
- zone (Test A, disk diffusion; quantity not given) (Candida albicans; Conc. 12.5 μg/desk): 40 mm
- zone (Test A, disk diffusion; quantity not given) (Candida albicans; Conc. 25 μg/desk): 44 mm
- zone of inhibition at 1.5 µg/disc (E. coli M. 2626; conc. 1.5 μg/disk): 33 mm
- zone of inhibition at 3 µg/disc (E. coli M. 2626; conc. 3.0 μg/disk): 38 mm
- zone of inhibition at 6 µg/disc (E. coli M. 2626; conc. 6.0 μg/disk): 40 mm
- zone of inhibition at 12.5 µg/disc (E. coli M. 2626; conc. 12.5 μg/disk): 41 mm
- zone of inhibition at 25 µg/disc (E. coli M. 2626; conc. 25.0 μg/disk): 46 mm

Compound: C[C@H](N)C(=O)NC(C(=O)O)n1cc(F)c(=O)[nH]c1=O (stereo partly drawn) [L-alanyl-2-(5-fluorouracil-1-yl)-D-glycine]
- MIC (C. albicans; C. albicans B-310, 24 hours): > 200 µg/mL
- MIC (C. albicans; C. albicans strain 3153A, listed as L-D): > 100 µg/mL
- MIC (C. albicans; C. albicans strain B 311, listed as L-D): > 100 µg/mL
- MIC (C. albicans; C. albicans strain BC 759, listed as L-D): > 100 µg/mL
- zone (Test A, disk diffusion; quantity not given) (Candida albicans; Conc. 1.5 μg/desk, listed as L,D): 0 mm
- zone (Test A, disk diffusion; quantity not given) (Candida albicans; Conc. 3.0 μg/desk, listed as L,D): 0 mm
- zone (Test A, disk diffusion; quantity not given) (Candida albicans; Conc. 6.0 μg/desk, listed as L,D): 0 mm
- zone (Test A, disk diffusion; quantity not given) (Candida albicans; Conc. 12.5 μg/desk, listed as L,D): 0 mm
- zone (Test A, disk diffusion; quantity not given) (Candida albicans; Conc. 25 μg/desk, listed as L,D): 0 mm
- zone size (Candida albicans; 62 μg/ml): 0 mm
- zone size (Candida albicans; 125 μg/ml): 0 mm
- zone size (Candida albicans; 250 μg/ml): 0 mm
- zone size (Candida albicans; 500 μg/ml): 0 mm
- zone size (Candida albicans; 1000 μg/ml): 0 mm

Compound: C[C@H](N)C(=O)NC(Sc1ccccc1)C(=O)O (stereo partly drawn) [L-alanyl-L-(α-phenylthio)glycine]
- use as enzyme substrate (leucine aminopeptidase): successfully used as enzyme substrates
- use as enzyme substrate (aminopeptidase M): successfully used as enzyme substrates

Compound: C[C@H](N)C(=O)N[C@H](C(=O)O)n1cc(F)c(=O)[nH]c1=O [L-alanyl-2-(5-fluorouracil-1-yl)-L-glycine]
- MIC (C. albicans; C. albicans B-310, 24 hours): 12.5 µg/mL (≈ 45.6 µM)
- MIC (C. albicans; C. albicans strain 3153A): 12.5 µg/mL (≈ 45.6 µM)
- MIC (C. albicans; C. albicans strain B 311): 12.5 µg/mL (≈ 45.6 µM)
- MIC (C. albicans; C. albicans strain BC 759): 1.6 µg/mL (≈ 5.83 µM)
- zone (Test A, disk diffusion; quantity not given) (Candida albicans; Conc. 1.5 μg/desk): 16 mm
- zone (Test A, disk diffusion; quantity not given) (Candida albicans; Conc. 3.0 μg/desk): 20 mm
- zone (Test A, disk diffusion; quantity not given) (Candida albicans; Conc. 6.0 μg/desk): 22 mm
- zone (Test A, disk diffusion; quantity not given) (Candida albicans; Conc. 12.5 μg/desk): 26 mm
- zone (Test A, disk diffusion; quantity not given) (Candida albicans; Conc. 25 μg/desk): 30 mm
- zone size (Candida albicans; 62 μg/ml): 16 mm
- zone size (Candida albicans; 125 μg/ml): 20 mm
- zone size (Candida albicans; 250 μg/ml): 22 mm
- zone size (Candida albicans; 500 μg/ml): 26 mm
- zone size (Candida albicans; 1000 μg/ml): 30 mm

Compound: C[C@H](N)C(=O)NC(NNS(=O)(=O)c1cc(C(=O)O)cc(C(=O)O)c1)C(=O)O (stereo partly drawn) [Example 12, L-alanyl-2-(3,5-dicarboxy-phenylsulfohydrazino)-D,L-glycine]
- activity in the biological screen [1]: not active

Compound: L-alanyl-2-(2,6-dicarboxy-pyridyl-4-)-ethylthio-D,L-glycine [Example 4]
- Rate plus 100 μg enzyme (warhead release) ([2]; 1 mM peptide, phosphate buffer 4 mM pH 7, 100 μg leucine aminopeptidase): 504 p moles per min
- λ(412) absorbance ([2]; Time (sec) 3, 1 mM peptide, phosphate buffer pH 7): 0.109
- λ(412) absorbance ([2]; Time (sec) 4): 0.127
- λ(412) absorbance ([2]; Time (sec) 5): 0.142
- λ(412) absorbance ([2]; Time (sec) 6): 0.161
- λ(412) absorbance ([2]; Time (sec) 7): 0.180
- λ(412) absorbance ([2]; Time (sec) 8): 0.199
- warhead release upon addition of Leucine Aminopeptidase ([2]; phosphate buffer pH 7.0, observation period 5 min): the warhead was released
- Spontaneous Rate (warhead release) ([3]; 1 mM peptide, phosphate buffer 4 mM pH 7, no enzyme): 65 p moles per min
- t 1/2 (stability) ([3]; 0.2 M phosphate buffer (pH 7.0)): ~ 5000 min
- λ(412) absorbance ([3]; Time (sec) 0, 1 mM peptide, Ellman's reagent 4 mg/ml, phosphate buffer 4 mM pH 7): 0.090
- λ(412) absorbance ([3]; Time (sec) 1, 1 mM peptide, phosphate buffer pH 7): 0.093
- λ(412) absorbance ([3]; Time (sec) 2, 1 mM peptide, phosphate buffer pH 7): 0.095
- non-enzymatic warhead release ([3]; pH 7.5, compared with pH 7.0): no noticeable increase
- enzymatically catalyzed release rate relative to pH 7.0 [4]: twice the previous rate

Compound: L-alanyl-2-(albendazole)-D,L-glycine [Example 22]
- antiparasitic activity (Fasciola hepatica): comparable to, or greater than, albendazole
- nematostatic activity (Caenorhabditis elegans): nematostatic activity was demonstrated
- antiparasitic activity (Nematospiroides dubius): comparable to, or greater than, albendazole

Compound: C[C@H](N)C(=O)NC(C(=O)O)n1cc(F)c(=O)[nH]c1=O (mixture of isomers) [Example 2, L-alanyl-2-(5-fluorouracil-1-yl)-D,L-glycine]
- MIC (C. albicans; C. albicans strain 3153A, listed as L-DL): 25 µg/mL
- MIC (C. albicans; C. albicans strain B 311, listed as L-DL): 25 µg/mL
- MIC (C. albicans; C. albicans strain BC 759, listed as L-DL): 6.3 µg/mL
- zone (Test A, disk diffusion; quantity not given) (Candida albicans; Conc. 1.5 μg/desk, listed as L-DL): 12 mm
- zone (Test A, disk diffusion; quantity not given) (Candida albicans; Conc. 3.0 μg/desk, listed as L-DL): 18 mm
- zone (Test A, disk diffusion; quantity not given) (Candida albicans; Conc. 6.0 μg/desk, listed as L-DL): 20 mm
- zone (Test A, disk diffusion; quantity not given) (Candida albicans; Conc. 12.5 μg/desk, listed as L-DL): 20 mm
- zone (Test A, disk diffusion; quantity not given) (Candida albicans; Conc. 25 μg/desk, listed as L-DL): 20 mm

Compound: N-carbobenzoxy-L-alanyl-D,L-2-(3-aminopropylthio)-glycine, benzyl ester [Example 23]
- substrate for trypsin (trypsin): shown to be substrates
